Test results from patent US6362369B1, “Phthalic acid diamide derivatives fluorine-containing aniline compounds as starting material, agricultural and horticultural insecticides, and a method for application of the insecticides” (Nihon Nohyaku Co., Ltd., priority 1997, dated 2002).

Columns and labels:
Type in all cases: in vivo
[1] = system: common cutworm (Spodoptera Litura); experiment: Insecticidal effect on common cutworm (Test Example 2); conditions: 500 ppm, cabbage leaf dip, second-instar larvae, eight days after inoculation, 25° C.
Method in brief: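 Air-dried treated material was placed in a closed dish with second-instar larvae and held at 25° C. Dead and live insects were counted eight days after inoculation, and mortality was calculated and scored against a fixed insecticidal-effect criterion. Three replicate groups of 10 insects were used.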

[2] = system: diamondback moth (Plutella xylostella); experiment: Insecticidal effect on diamondback moth (Test Example 1); conditions: mortality judged according to the criterion shown in Test Example 1
Method in brief: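 Eggs laid by adult moths on Chinese cabbage seedlings, which were immersed in test solution, air-dried and kept at 25 °C. Hatched insects counted 6 days after immersion and mortality calculated, with effect graded by criterion; triplicate groups of 10 insects.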

[3] = system: rice leafroller (Cnaphalocrocis medinalis); experiment: Insecticidal effect on rice leafroller (Test Example 3); conditions: 500 ppm, rice lamina dip, third-instar larvae, four days after inoculation, 25° C., humidity 70%
Method in brief: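 Groups of 10 third-instar larvae, in triplicate, are placed on air-dried lamina resting on wet filter paper. Incubation runs four days at 25° C with 70% humidity before survivors and dead are tallied.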

SMILES	Insecticidal effect on common cutworm (Test Example 2), judged grade [1]	Insecticidal effect on diamondback moth (Test Example 1), judged grade [2]	Insecticidal effect on rice leafroller (Test Example 3), judged grade [3]
Cc1ccc(NC(=O)c2cccc([N+](=O)[O-])c2C(=O)NC(C)C)c(C)c1 [compound 648]	D (79-50)	A (100)	A (100)
Cc1c(Cl)cccc1NC(=O)c1cccc([N+](=O)[O-])c1C(=O)NC(C)C [compound 663]	A (100)	A (100)	D (79-50)
Cc1ccc(Cl)cc1NC(=O)c1cccc([N+](=O)[O-])c1C(=O)NC(C)C [compound 665]	A (100)	A (100)	B (99-90)
CCc1cc(Cl)ccc1NC(=O)c1cccc([N+](=O)[O-])c1C(=O)NC(C)C [compound 667]	A (100)	A (100)	A (100)
Cc1c(Cl)ccc(NC(=O)c2cccc([N+](=O)[O-])c2C(=O)NC(C)C)c1C [compound 669]	D (79-50)	A (100)	A (100)
Cc1cc(I)ccc1NC(=O)c1cccc([N+](=O)[O-])c1C(=O)NC(C)C [compound 673]	D (79-50)	A (100)	D (79-50)
Cc1c(F)cccc1NC(=O)c1cccc([N+](=O)[O-])c1C(=O)NC(C)C [compound 674]	D (79-50)	A (100)	A (100)
Cc1cc(F)ccc1NC(=O)c1cccc([N+](=O)[O-])c1C(=O)NC(C)C [compound 675]	A (100)	A (100)	A (100)
Cc1ccc(F)cc1NC(=O)c1cccc([N+](=O)[O-])c1C(=O)NC(C)C [compound 676]	C (89-80)	A (100)	A (100)
Cc1c(NC(=O)c2cccc([N+](=O)[O-])c2C(=O)NC(C)C)cccc1C(F)(F)F [compound 681]	A (100)	A (100)	A (100)
Cc1cc(C(F)(F)C(F)(F)F)ccc1NC(=O)c1cccc([N+](=O)[O-])c1C(=O)NC(C)C [compound 683]	A (100)	A (100)	A (100)
Cc1cc(C(F)(F)C(F)(F)C(F)(F)F)ccc1NC(=O)c1cccc([N+](=O)[O-])c1C(=O)NC(C)C [compound 684]	A (100)	A (100)	A (100)
Cc1cc(C(F)(F)C(F)(F)C(F)(F)C(F)(F)F)ccc1NC(=O)c1cccc([N+](=O)[O-])c1C(=O)NC(C)C [compound 686]	A (100)	A (100)	A (100)
COc1cccc(NC(=O)c2cccc([N+](=O)[O-])c2C(=O)NC(C)C)c1C [compound 687]	D (79-50)	A (100)	D (79-50)
COc1ccc(NC(=O)c2cccc([N+](=O)[O-])c2C(=O)NC(C)C)c(C)c1C [compound 689]	D (79-50)	A (100)	A (100)
COc1cc(NC(=O)c2cccc([N+](=O)[O-])c2C(=O)NC(C)C)cc(C(F)(F)F)c1 [compound 691]	D (79-50)	A (100)	C (89-80)
